Results as given in US20040023924A1, “Use of xyloglucan polymers and oligomers, and derivative compounds, as phytosanitary products and biofertilizers” (priority 2000, published 2004).

Tests used:
Format in all cases: cell-based, Acer pseudoplatanus L.
papain (EC 3.4.22.2) = test: Induction of a thiol-protease (papain) inhibitor in elicited cells; settings: 50 nM elicitor; for Papain inhibitor potential, early reaction: after 30 minutes; for Papain inhibitor potential, late reaction: after 42 hours
Procedure: Vegetable Material: Acer pseudoplatanus L. Cells in Suspension
Test: 2.10^6 cells of Acer pseudoplatanus L. were elicited by 50 nM of 2′-fucosyl lactose (compound A) or by 50 nM of methyl α-L-Fuc (1→2)β-D-Gal (1→2)β-D-Xyl trisaccharide (compound B) (synthesized according to Lopez et al., 1994) for 30 minutes or for 42 hours. Inhibitors of protease (IP) were prepared according to the protocol of Walker-Simmons (1977) starting from elicited or non-elicited cells. It was verified that the viability of the cells was maintained at more than 85% for the whole duration of the experiment.
Papain activity assay: the reaction medium contains an aliquot of IP extract (equivalent to 1 or 2 μg of proteins) in sodium phosphate citrate buffer (0.1M) pH 6 enriched with cysteine-HCl (5 mM), papain (EC 3.4.22.2) (0.48 units), p-nitroanilide N-α-benzoyl-D-L-arginine (BAPNA) (0.27 mM). The activity assay is based on the absorbance measurement at 410 nm. The reaction rate is given by ΔA410 min^−1.
Evaluation of the experimental data: for a given sample, the activity of an IP inhibitor isolated from this sample is estimated by developing the protease kinetics (recording at 410 nm for IO minutes in the presence or not in the presence of a variable quantity of inhibitor). The experimental conditions adopted (incubation time, substrate, enzyme and IP extract concentrations) are those which lead to linear and reproducible kinetics. The initial reaction rate is the slope α(A410 minutes^−1) of a curve A410=f(t). For a given sample, at least three curves are plotted and the initial rate is deduced by linear regression. The protease activity modulation capacity is expressed as a % of the control activity (protease activity without IP inhibitor).
The elicitation response is evaluated according to the papain inhibition measured in the presence of a protease inhibitor prepared from cells elicited by 2′ fucosyl lactose (2A) or by methyl α-L-Fuc (12) β-D-Gal (12) β-D-Xyl trisaccharide (2B); the results are expressed as a % of the control activity (papain activity in the non-elicited cells measured without inhibitor).

[1] = test system: β-D-xylosidase (EC 3.2.1.37); test: Induction of a β-D-xylosidase response in elicited cells; settings: 50 nM elicitor; for β-D-xylosidase response R (activity in elicited cells/non-elicited control cells), maximal: 15 minutes; for β-D-xylosidase response: 42 hours; for β-D-xylosidase response R: after 1 hour
Procedure: (§1) Vegetable material: Acer pseudoplatanus L Cells in Suspension
(§2) Test: 2.10^6 Acer pseudoplatanus L. cells were elicited under circular stirring (80 rpm), in 25 ml of culture medium (without 2,4-D) by 50 nM of 2′-fucosyl lactose (compound A) or 50 nM of methyl α-L-Fuc (1→2) β-D-Gal (1→2) β-D-Xyl trisaccharide (compound B)(synthesized according to Lopez et al., 1994) or for a variable time (0 to 42 hours) in the presence or not in the presence of an effector: cycloheximide (1 μM), okadaic acid (5 nM), staurosporine (500 nM), or boroglycine (500 nM). The elicitation experiment is stopped by putting the cells in ice. The cells recovered after decantation and taken up in approximately 1 ml of elicitation buffer are the subject of a specific protein extraction.
(§3) D-glycosylhydrolase extraction. The enzyme extracts are prepared from elicited or non-elicited cells. The cells are homogenized at 0° C. in Tris-HCl buffer (50 mM pH 7.2) containing 1 M of NaCl with a Vibracell™ Bioblock sonicator, maximum power, for 3 times 1 minute. The homogenates are centrifuged at 4° C. (12000 g, 15 minutes) then dialysed and concentrated on Ultrafree™ Millipore ultrafiltration units (cut-off threshold 10 kDa). The retentates, taken up in distilled water, are crude extracts.
β-D-xylosidase activity assay according to the protocol of Lee and Zeikus (1993) after incubation of the enzyme extracts (2 to 4 μg of proteins) in sodium acetate buffer (0.1 M, pH 5), at 40° C. for a variable time (90 to 210 minutes), in the presence of p-nitrophenyl β-D-xylopyranoside (p-NPX) substrate (7.3 μM). After addition of Na2CO3 (0.1 M), the products released are assayed by spectrophotometry at 410 nm.
(§4) Evaluation of the experimental data. At least 2 kinetics were carried out per sample, and per set of experiments. The reaction rate (ΔA410 minutes^−1 for example) is obtained by linear regression from 4 kinetic curves. The results are expressed by the ratio R (enzymatic activity in elicited cells/enzymatic activity in non-elicited control cells).

[2] = test system: 1,4 β-D-glucanase (EC 3.2.1.4); test: Induction of a 1,4 β-D-glucanase response in elicited cells; settings: 50 nM elicitor; for 1,4 β-D-glucanase response R: 42 hours; for 1,4 β-D-glucanase early response R: after 20 minutes
Procedure: as §1, §2, §3
(§5) 1,4 β-D-glucanase activity assay. This is based on colorimetric assay (ferricyanide test of Kidby and Davidson (1973) of the cellopentaose substrate reducing units released during the hydrolysis. The reaction medium contains the enzyme extract (1 μg of proteins), reduced cellopentaose (4 μM) in 100 μl of sodium acetate buffer (0.1 M), pH 5.0); the enzymatic reaction at 40° C. develops over a variable time (1 to 3 hours).
as §4

[3] = test system: 1,3 β-D-glucanase (EC 3.2.1.39); test: Induction of a 1,3 β-D-glucanase response in elicited cells; settings: 50 nM elicitor; for 1,3 β-D-glucanase response R: 42 hours; for 1,3 β-D-glucanase early response R: after 20 minutes
Procedure: as §1, §2, §3
as §5, with “1,3” for “1,4”, “the” for “the cellopentaose”, “units (laminarin or laminarin hexamer)” for “units”, “proteins), the substrate (5 μM of” for “proteins),”, “laminarin hexamer)” for “cellopentaose (4 μM)”
as §4

[4] = test system: endochitinase (EC 3.2.1.14); test: Induction of an endochitinase response in elicited cells; settings: 50 nM elicitor; for Endochitinase response: 42 hours; for Endochitinase early response R: after approximately 25 minutes
Procedure: as §1, §2, §3
Endochitinase activity assay. This is based on the released reducing sugar assay according to Somogyi (1952). The reaction medium contains the enzyme extract (1 μg of proteins), the substrate (25 μg of chitin) in 100 μl of sodium acetate buffer (0.1 M), pH 5.0; the enzymatic reaction at 40° C. develops over a variable time (1 to 5 hours).
as §4

Structure (SMILES)	Papain inhibitor potential, early reaction (papain (EC 3.4.22.2))	Papain inhibitor potential, late reaction (papain (EC 3.4.22.2))	β-D-xylosidase response R (activity in elicited cells/non-elicited control cells), maximal [1]	β-D-xylosidase response [1]	β-D-xylosidase response R [1]	1,4 β-D-glucanase response R [2]	1,4 β-D-glucanase early response R [2]	1,3 β-D-glucanase response R [3]	1,3 β-D-glucanase early response R [3]	Endochitinase response [4]	Endochitinase early response R [4]
C[C@@H]1O[C@@H](O[C@H]2[C@H](O[C@H]3[C@H](O)[C@@H](O)[C@H](O)O[C@@H]3CO)O[C@H](CO)[C@H](O)[C@@H]2O)[C@@H](O)[C@H](O)[C@@H]1O [compound A, α-L-Fuc(1→2)β-D-Gal(1→4)β-D-Glc]	same papain inhibitor potential	lower intensity	9	no significant response	1	~4	~5	~12	~3	no enzymatic activation was detected	~6
CO[C@@H]1OC[C@@H](O)[C@H](O)[C@H]1O[C@@H]1O[C@H](CO)[C@H](O)[C@H](O)[C@H]1O[C@@H]1O[C@@H](C)[C@@H](O)[C@@H](O)[C@@H]1O [compound B, methyl α-L-Fuc (1→2)β-D-Gal (1→2)β-D-Xyl]	same papain inhibitor potential	lower intensity	5	no significant response	1	~4	~5	~12	~3	no enzymatic activation was detected	~6
